Where a SMILES comes first, the peptide text is derived from it. Bridges are numbered along the chain shown (N, C = ends).
What was measured:
rat α3β2 nAChRs = target: T1, rat α3β2 nAChRs (Rattus norvegicus, UniProt P04757+P12390); assay: cell-based
T1 construct: expressed in transfected cells; host or cells: Xenopus oocytes (cRNA injection)

GABABR-coupled Cav2.2 = target: T2, GABABR-coupled Cav2.2 (Homo sapiens, UniProt O75899+Q9UBS5); assay: cell-based; set-up: species or system human GABABR and rat Cav2.2
T2 construct: expressed in transfected cells; host or cells: HEK293T cells, transient transfection; GABAB subunit plasmids from David J. Adams, University of Wollongong
T2 sequence (Q9UBS5 15-961 limits assumed): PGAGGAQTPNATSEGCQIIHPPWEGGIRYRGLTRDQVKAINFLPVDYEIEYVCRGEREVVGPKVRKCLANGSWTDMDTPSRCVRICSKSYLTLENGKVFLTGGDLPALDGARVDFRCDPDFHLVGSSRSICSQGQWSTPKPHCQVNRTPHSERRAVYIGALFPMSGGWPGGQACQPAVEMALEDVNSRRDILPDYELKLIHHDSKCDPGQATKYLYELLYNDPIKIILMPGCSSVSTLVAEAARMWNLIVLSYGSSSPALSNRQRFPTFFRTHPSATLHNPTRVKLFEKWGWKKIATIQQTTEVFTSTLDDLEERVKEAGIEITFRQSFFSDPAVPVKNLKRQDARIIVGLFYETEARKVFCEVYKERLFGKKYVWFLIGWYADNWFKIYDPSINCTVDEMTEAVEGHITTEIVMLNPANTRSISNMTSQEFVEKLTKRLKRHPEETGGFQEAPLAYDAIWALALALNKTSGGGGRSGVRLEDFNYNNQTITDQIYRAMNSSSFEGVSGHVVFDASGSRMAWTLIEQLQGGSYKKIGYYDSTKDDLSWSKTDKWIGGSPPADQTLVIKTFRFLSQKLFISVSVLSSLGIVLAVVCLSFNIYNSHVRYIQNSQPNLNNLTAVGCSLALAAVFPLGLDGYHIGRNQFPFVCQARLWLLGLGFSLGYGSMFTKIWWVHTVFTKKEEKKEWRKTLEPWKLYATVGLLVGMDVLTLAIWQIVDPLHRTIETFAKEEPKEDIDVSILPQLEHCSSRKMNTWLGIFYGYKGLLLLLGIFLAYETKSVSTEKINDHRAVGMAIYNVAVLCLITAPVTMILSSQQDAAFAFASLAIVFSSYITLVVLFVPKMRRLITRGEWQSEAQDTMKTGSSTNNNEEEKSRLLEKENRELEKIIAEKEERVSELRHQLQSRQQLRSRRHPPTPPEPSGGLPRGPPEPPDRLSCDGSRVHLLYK
T2 sequence (O75899 42-941): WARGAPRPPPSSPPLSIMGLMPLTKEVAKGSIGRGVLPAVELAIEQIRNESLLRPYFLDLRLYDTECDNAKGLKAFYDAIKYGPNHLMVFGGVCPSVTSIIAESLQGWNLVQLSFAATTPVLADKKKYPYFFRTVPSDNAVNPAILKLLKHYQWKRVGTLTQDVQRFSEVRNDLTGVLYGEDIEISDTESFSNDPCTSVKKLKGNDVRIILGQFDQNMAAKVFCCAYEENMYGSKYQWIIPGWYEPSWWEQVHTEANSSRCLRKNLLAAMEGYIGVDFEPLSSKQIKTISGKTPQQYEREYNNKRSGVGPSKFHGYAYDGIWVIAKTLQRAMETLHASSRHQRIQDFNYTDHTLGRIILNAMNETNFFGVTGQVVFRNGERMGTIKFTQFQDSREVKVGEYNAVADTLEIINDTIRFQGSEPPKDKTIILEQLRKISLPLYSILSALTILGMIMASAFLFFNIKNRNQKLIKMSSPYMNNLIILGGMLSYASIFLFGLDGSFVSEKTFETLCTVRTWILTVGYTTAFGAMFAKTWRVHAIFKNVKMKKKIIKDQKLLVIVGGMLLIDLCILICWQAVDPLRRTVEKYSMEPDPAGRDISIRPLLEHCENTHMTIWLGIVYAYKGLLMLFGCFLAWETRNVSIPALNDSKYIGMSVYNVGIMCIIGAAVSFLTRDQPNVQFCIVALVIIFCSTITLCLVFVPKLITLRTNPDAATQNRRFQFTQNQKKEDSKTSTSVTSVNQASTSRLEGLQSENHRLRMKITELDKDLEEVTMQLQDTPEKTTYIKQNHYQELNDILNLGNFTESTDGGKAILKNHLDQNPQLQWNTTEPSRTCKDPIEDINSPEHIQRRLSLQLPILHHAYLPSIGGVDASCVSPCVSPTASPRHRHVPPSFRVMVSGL

hα4β2 nAChR = settings: cited from earlier work
hα3β4 nAChR = settings: cited from earlier work
hα3β2 nAChR = settings: cited from earlier work
α4β2 nAChR = target: T3, α4β2 nAChR (Rattus norvegicus, UniProt P09483+P12390); settings: cited from earlier work
T3 construct: expressed in transfected cells; host or cells: Xenopus oocytes (cRNA injection)

α7 nAChR = target: T4, α7 nAChR (Rattus norvegicus, UniProt Q05941); settings: cited from earlier work
T4 construct: expressed in transfected cells; host or cells: Xenopus oocytes (cRNA injection)

α3β2 nAChR = settings: cited from earlier work
α9α10 nAChR = target: T5, α9α10 nAChR (Rattus norvegicus, UniProt P43144+Q9JLB5); settings: read-out: IC50 α9α10; cited from earlier work
T5 construct: expressed in transfected cells; host or cells: Xenopus oocytes (cRNA injection)
T5 sequence (P43144 26-479 limits assumed): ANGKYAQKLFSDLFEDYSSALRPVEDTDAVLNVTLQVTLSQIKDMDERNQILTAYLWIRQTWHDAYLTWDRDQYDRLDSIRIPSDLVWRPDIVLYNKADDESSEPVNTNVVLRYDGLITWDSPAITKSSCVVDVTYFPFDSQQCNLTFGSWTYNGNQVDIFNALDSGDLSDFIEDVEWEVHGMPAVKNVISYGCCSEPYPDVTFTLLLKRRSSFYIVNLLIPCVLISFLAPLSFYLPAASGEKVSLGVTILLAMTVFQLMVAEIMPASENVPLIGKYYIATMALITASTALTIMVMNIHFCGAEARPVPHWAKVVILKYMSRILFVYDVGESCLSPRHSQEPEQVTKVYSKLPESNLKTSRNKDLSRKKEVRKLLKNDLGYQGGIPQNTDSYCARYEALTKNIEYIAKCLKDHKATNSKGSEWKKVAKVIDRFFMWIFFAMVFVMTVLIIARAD
T5 sequence (Q9JLB5 25-447 limits assumed): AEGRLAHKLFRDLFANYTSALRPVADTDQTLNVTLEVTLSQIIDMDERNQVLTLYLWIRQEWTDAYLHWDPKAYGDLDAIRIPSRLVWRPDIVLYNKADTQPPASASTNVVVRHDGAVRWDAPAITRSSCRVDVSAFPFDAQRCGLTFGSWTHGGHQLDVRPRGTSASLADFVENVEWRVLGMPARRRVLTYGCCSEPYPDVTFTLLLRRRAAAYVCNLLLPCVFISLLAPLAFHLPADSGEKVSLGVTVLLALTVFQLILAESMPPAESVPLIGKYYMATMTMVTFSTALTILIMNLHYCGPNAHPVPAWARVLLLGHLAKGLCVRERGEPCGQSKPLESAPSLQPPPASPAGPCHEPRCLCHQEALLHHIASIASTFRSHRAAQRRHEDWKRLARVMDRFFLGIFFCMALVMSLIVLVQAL

T1 sequence (P04757 26-499 limits assumed): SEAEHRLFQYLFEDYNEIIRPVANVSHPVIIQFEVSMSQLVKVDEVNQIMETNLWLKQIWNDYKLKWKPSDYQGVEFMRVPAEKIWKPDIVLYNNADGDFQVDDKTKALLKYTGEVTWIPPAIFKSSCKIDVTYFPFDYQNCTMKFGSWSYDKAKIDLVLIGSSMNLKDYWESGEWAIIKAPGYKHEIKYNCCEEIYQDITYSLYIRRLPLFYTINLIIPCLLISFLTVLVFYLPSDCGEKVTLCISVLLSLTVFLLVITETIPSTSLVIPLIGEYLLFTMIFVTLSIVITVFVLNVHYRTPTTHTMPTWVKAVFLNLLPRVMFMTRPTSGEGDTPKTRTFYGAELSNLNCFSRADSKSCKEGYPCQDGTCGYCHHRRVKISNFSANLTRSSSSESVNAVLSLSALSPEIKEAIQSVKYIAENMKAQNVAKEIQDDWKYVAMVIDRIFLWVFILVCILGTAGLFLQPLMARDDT
T1 sequence (P12390 25-500 limits assumed): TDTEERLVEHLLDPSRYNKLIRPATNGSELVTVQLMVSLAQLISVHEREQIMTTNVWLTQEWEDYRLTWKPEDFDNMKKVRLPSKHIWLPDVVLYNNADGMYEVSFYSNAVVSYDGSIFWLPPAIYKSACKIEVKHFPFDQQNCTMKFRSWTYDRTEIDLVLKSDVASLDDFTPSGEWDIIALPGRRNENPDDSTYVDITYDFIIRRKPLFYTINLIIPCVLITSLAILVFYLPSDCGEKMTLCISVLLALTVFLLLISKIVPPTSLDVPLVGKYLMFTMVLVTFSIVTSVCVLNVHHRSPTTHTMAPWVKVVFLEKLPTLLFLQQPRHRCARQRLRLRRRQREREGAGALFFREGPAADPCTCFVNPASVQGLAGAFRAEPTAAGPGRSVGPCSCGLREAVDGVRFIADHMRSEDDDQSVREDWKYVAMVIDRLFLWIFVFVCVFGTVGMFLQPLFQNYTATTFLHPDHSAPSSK

Compound: C[C@@H]1NC(=O)[C@@H]2CCCN2C(=O)[C@H](Cc2c[nH]cn2)NC(=O)[C@H](CO)NC(=O)[C@@H]2CSSC[C@H](NC1=O)C(=O)N[C@@H](CO)C(=O)NCC(=O)N[C@@H](CC(N)=O)C(=O)N[C@@H](CC(N)=O)C(=O)N1CCC[C@H]1C(=O)N[C@@H](Cc1ccc(O)cc1)C(=O)N[C@@H](Cc1ccccc1)C(=O)N[C@H](C(N)=O)CSSC[C@H](NC(=O)CN)C(=O)N2 [Lt1.3-I] (H-GCCSHPACSGNNPYFC-NH2; disulfide 2-16, 3-8)
- IC50 (rat α3β2 nAChRs): > 10 µM
- IC50 (GABABR-coupled Cav2.2): 0.0339 µM
- inhibition at 0.1 µM (GABABR-coupled Cav2.2; HEK-293T, read-out: inhibition of peak current amplitude, SEM): 28 ± 3.8%

Compound: C[C@@H]1NC(=O)CNC(=O)[C@H](CO)NC(=O)[C@@H]2CSSC[C@H](NC(=O)CN)C(=O)N[C@@H](CSSC[C@@H](C(N)=O)NC(=O)[C@H](Cc3ccccc3)NC(=O)[C@H](Cc3ccc(O)cc3)NC(=O)[C@@H]3CCCN3C(=O)[C@H](CC(N)=O)NC1=O)C(=O)N[C@@H](CO)C(=O)N[C@@H](Cc1c[nH]cn1)C(=O)N1CCC[C@H]1C(=O)N[C@@H](C)C(=O)N2 [Lt1.3[N11A]] (H-GCCSHPACSGANPYFC-NH2; disulfide 2-8, 3-16; N-terminus assumed)
- IC50 (rat α3β2 nAChRs): > 10 µM

Compound: C[C@@H]1NC(=O)[C@@H]2CSSC[C@H](NC(=O)CN)C(=O)N[C@@H](CSSC[C@@H](C(N)=O)NC(=O)[C@H](Cc3ccccc3)NC(=O)[C@H](Cc3ccc(O)cc3)NC(=O)[C@@H]3CCCN3C(=O)[C@H](CC(N)=O)NC(=O)[C@H](CC(N)=O)NC(=O)CNC1=O)C(=O)N[C@@H](CO)C(=O)N[C@@H](Cc1c[nH]cn1)C(=O)N1CCC[C@H]1C(=O)N[C@@H](C)C(=O)N2 [Lt1.3[S9A]]
- IC50 (rat α3β2 nAChRs): 0.0354 µM

Compound: G CC SHPA C AGNNQHI C * (bicyclic or more) [GIC, α4/7-CTx targeting nAChR α3β2]
- IC50 (hα4β2 nAChR): 0.309 µM
- IC50 (hα3β4 nAChR): 0.755 µM
- IC50 (hα3β2 nAChR): 0.0011 µM

Compound: G CC SNPV C HLEHSNL C * (bicyclic or more) (GCCSNPVCHLEHSNLC) [MII, α4/7-CTx targeting nAChR α3β2]
- IC50 (α4β2 nAChR): 0.548 µM
- IC50 (α7 nAChR): ~0.2 µM

Compound: G CC SNPV C HLEHSNL C * (bicyclic or more) [MII, α4/7-CTx targeting nAChR α3β2]
- IC50 (α3β2 nAChR): 0.0005 µM

Compound: GG CC SHPA C AANNQD(sTy) C * (bicyclic or more) [AnIB, α4/7-CTx targeting nAChR α3β2]
- IC50 (α3β2 nAChR): 0.0003 µM

Compound: IRDE CC SNPA C RVNNOHV C RRR (bicyclic or more) [ArIA, α4/7-CTx targeting nAChR α3β2]
- IC50 (α3β2 nAChR): 0.018 µM

Compound: PE CC THPA C HVSHPEL C * (bicyclic or more) [Mr1.7, α4/7-CTx targeting nAChR α3β2]
- IC50 (α3β2 nAChR): 0.0531 µM
- IC50 (α9α10 nAChR): 0.188 µM

Compound: SG CC SNPA C RVNNPNI C * (bicyclic or more) (SGCCSNPACRVNNPNIC) [LsIA, α4/7-CTx targeting nAChR α3β2]
- IC50 (α7 nAChR): 0.0101 µM

Compound: SG CC SNPA C RVNNPNI C * (bicyclic or more) [LsIA, α4/7-CTx targeting nAChR α3β2]
- IC50 (α3β2 nAChR): 0.0103 µM

Reference: paper PMC5923399 (Marine Drugs, 2018)
